Data on 1 molecule can be found in patent US12390470B2, “1-methylxanthine-based bioactive composition and method of use thereof” (Ingenious Ingredients, LP, priority 2021, dated 2025).

The test system of data set [1] is Brain-derived neurotrophic factor (BDNF). As to the kind of experiment: BDNF level in young and old rats. The data set is classed as in vivo. The method, then:
(§1) Twenty-four young (6-8 Week) and twenty-four old (14-16 Months) Swiss Albino Wistar rats were housed in an animal room at a constant temperature (22±3° C.) and humidity (30%-70%) under a 12:12 h light-dark cycle with standard laboratory diet (Purina 5L79, Rat and Mouse 18% protein; PMI Nutrition International, Brentwood, MO, USA). Distilled water was provided ad libitum. All animal experiments were reviewed and approved by the Institutional Animal Ethical Committee (IAEC) of Radiant Research Services Pvt. Ltd (Bangalore, India). All research was conducted in accordance with the guidelines of the committee for the purpose of control and supervision of experiments on animals.
(§2) After one week of acclimation, the animals were randomly divided by body weight and age into six groups (n=8 per group in each test) for oral treatment once a day, at approximately same time each day (±1 hour), for 10 consecutive days: (1) vehicle control or (2) 1-methylxanthine or (3) 1-methylxanthine plus paraxanthine. The dose administered to the rat was calculated using US Food and Drug Administration for human equivalence doses (HED), assuming a human weight of 60 kg. […] Food intake was monitored daily while water intake was ad libitum. […] Body weight was recorded weekly. […]

The test system of the next data set is gastrocnemius. Description: Gastrocnemius muscle mass after 28 days supplementation. The data set is classed as in vivo, mice. The method, then: as §1, with “8-week-old male” for “young (6-8 Week) and twenty-four old (14-16 Months)”, “mice” for “Wistar rats”
(§3) After one week of acclimation, the animals were randomly divided by body weight into three groups (n=8 per group in each test) for oral treatment once a day, at approximately same time each day (±1 hour), for 28 consecutive days: (1) vehicle control or (2) 1-methylxanthine or (3) 1-methylxanthine plus paraxanthine. The dose administered to the mice was calculated using US Food and Drug Administration for human equivalence doses (HED), assuming a human weight of 60 kg. […] Food intake was monitored daily while water intake was ad libitum. BW was recorded weekly. […]

For another data set, the system named is dopamine. Description: Dopamine level in young and old rats. The following applies: old rats. It counts as in vivo. How it is done:
as §1, §2

In a further data set the test system is Swiss Albino Wistar rats. As to the kind of experiment: Morris water maze test in young and old rats. The data set is classed as in vivo. The following applies: HED 100 mg 1-MX (+25 mg PX). The method, then: as §1, §2
Data set [2] is described as follows: Organ weight (liver, heart), Example 1. It counts as in vivo. The following applies: mice, 28 days. The method, then:
as §1, with “8-week-old male” for “young (6-8 Week) and twenty-four old (14-16 Months)”, “mice” for “Wistar rats”
as §3

In the next data set the test system is male Swiss Albino mice. Description: Treadmill endurance test. It counts as in vivo. The method, then: as §1, with “8-week-old male” for “young (6-8 Week) and twenty-four old (14-16 Months)”, “mice” for “Wistar rats”
After one week of acclimation, the animals were randomly divided by body weight into three groups (n=8 per group in each test) for oral treatment once a day, at approximately same time each day (±1 hour), for 28 consecutive days: (1) vehicle control or (2) 1-methylxanthine or (3) 1-methylxanthine plus paraxanthine. The dose administered to the mice was calculated using US Food and Drug Administration for human equivalence doses (HED), assuming a human weight of 60 kg. The following HED was used in this study: 100 mg 1-methylxanthine (Ingenious Ingredients, L.P Lewisville, TX, USA; mouse dose: 20.5 mg/kg bw/day), or 100 mg 1-methylxanthine (Ingenious Ingredients, L.P Lewisville, TX, USA; mouse dose: 20.5 mg/kg bw/day) plus 100 mg paraxanthine (ENFINITY™, Ingenious Ingredients, L.P Lewisville, TX, USA; mouse dose: 20.5 mg/kg bw/day). 0.5% Carboxy Methyl Cellulose sodium was used as vehicle and the test item formulations were prepared daily. Dosing was conducted via oral gavage using disposable polypropylene syringes with sterilized stainless steel gavage tubes. Food intake was monitored daily while water intake was ad libitum. BW was recorded weekly. […]
On 28th day of each respective treatment, all animals were subjected to a muscle endurance test. […] Distance traveled (cm) was measured as a marker of exercise performance.

SMILES strings stand for the structures.

As for `Cn1c(=O)[nH]c2nc[nH]c2c1=O` [1-methylxanthine, 1-Methyl-3H-purine-2,6-dione], the results for the BDNF levels in data set [1] (old rats) and in data set [1] (young rats) were 793.81 ± 33.85 pg/mL and 869.04 ± 32.79 pg/mL, respectively. Further, the “gastrocnemius mass greater compared to control” value in the data set with gastrocnemius (28 days) stood at 1.9%. The molecule further displayed a gastrocnemius mass in the data set with gastrocnemius (28 days after supplementation) of 161.1 ± 4.3 mg. This molecule also displayed a dopamine level with dopamine of 474.42 ± 13.49 ng/L. For the same molecule, the “Escape latency, Morris water maze” value in the data set on Swiss Albino Wistar rats (old rats) turned out to be 41.71 ± 1.81 s; in the data set with Swiss Albino Wistar rats (young rats), 32.18 ± 1.10 s. In data set [2], this molecule displayed a Heart weight of 189.13 ± 0.64 mg. This molecule also displayed a Liver weight in data set [2] of 1847.25 ± 47.92 mg. For the same molecule, the “Distance travelled on treadmill” value with male Swiss Albino mice (baseline) was 269.6±33.0 cm; in the data set with male Swiss Albino mice (day 28, oral 20.5 mg/kg bw/day each, 28 days) it was 1,641.3±74.6 cm. Further, the “changes in treadmill performance greater than control” value in the data set with male Swiss Albino mice (baseline to day 28) came out at 10.0%.
